Measured values reported in the supplement of paper PMC10307832.

Key:
Assay in all cases: relative viability (nuclei count vs DMSO), 5 days (fraction); higher = more cells survive
[1] = compound: C/C(=N\NC(=S)N1CCC1)/C2=CC=CC=N2 + CC(=O)c1c(C)c2cnc(Nc3ccc(N4CCNCC4)cn3)nc2n(C2CCCC2)c1=O [Palbociclib] (partner 0.5 µM)
Outline: (§1)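 One day after seeding in 1536-well plates, lung cancer cell lines were dosed by pin tool. Dosing was either single-drug or a fixed anchor-drug dose plus five library-drug doses (not always all listed) in √10 steps. After 5 days, nuclei were stained in one fix-and-stain step and counted on 4× images, and relative viability is the nuclei count of treated wells over that of vehicle wells, given as the median of duplicate plates.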

[2] = compound: C/C(=N\NC(=S)N1CCC1)/C2=CC=CC=N2 + CCNC(=O)c1noc(-c2cc(C(C)C)c(O)cc2O)c1-c1ccc(CN2CCOCC2)cc1 [Luminespib] (partner 0.01 µM)
Outline: as §1

[3] = compound: C/C(=N\NC(=S)N1CCC1)/C2=CC=CC=N2 + COc1cccc2cc(-c3nc([C@H]4CC[C@H](C(=O)O)CC4)n4ncnc(N)c34)[nH]c12 [OSI-027] (partner 0.5 µM)
Outline: as §1

[4] = compound: C/C(=N\NC(=S)N1CCC1)/C2=CC=CC=N2 + CS(=O)(=O)N1CCN(Cc2cc3nc(-c4cccc5[nH]ncc45)nc(N4CCOCC4)c3s2)CC1 [Pictilisib] (partner 1 µM)
Outline: as §1

Cell Line	relative viability ([1]; first compound 0.05 µM)	relative viability ([1]; first compound 0.1581 µM)	relative viability ([1]; first compound 0.5 µM)	relative viability ([1]; first compound 1.581 µM)	relative viability ([1]; first compound 5 µM)	relative viability ([2]; first compound 0.05 µM)	relative viability ([2]; first compound 0.1581 µM)	relative viability ([2]; first compound 0.5 µM)	relative viability ([2]; first compound 1.581 µM)	relative viability ([2]; first compound 5 µM)	relative viability ([3]; first compound 0.05 µM)	relative viability ([3]; first compound 0.1581 µM)	relative viability ([3]; first compound 0.5 µM)	relative viability ([3]; first compound 1.581 µM)	relative viability ([3]; first compound 5 µM)	relative viability ([4]; first compound 0.05 µM)	relative viability ([4]; first compound 0.1581 µM)	relative viability ([4]; first compound 0.5 µM)	relative viability ([4]; first compound 1.581 µM)	relative viability ([4]; first compound 5 µM)
HCC-44	0.976	0.886	0.563	0.556	0.451	0.326	0.307	0.283	0.32	0.242	0.183	0.221	0.261	0.195	0.297	0.341	0.142	0.125	0.149	0.217
NCI-H460	0.018	0.0146	0.0188	0.0169	0.0139	0.0193	0.0163	0.025	0.0173	0.0171	0.0284	0.0249	0.0234	0.0201	0.0147	0.108	0.12	0.0972	0.13	0.0516
SK-LU-1	0.233	0.233	0.246	0.196	0.233	0.154	0.133	0.176	0.156	0.178	0.145	0.136	0.131	0.124	0.151	0.166	0.188	0.212	0.158	0.139
NCI-H322M	0.345	0.382	0.488	0.379	0.439	0.314	0.327	0.289	0.263	0.309	0.325	0.351	0.321	0.288	0.337	0.23	0.38	0.275	0.263	0.287
EKVX	0.13	0.149	0.109	0.141	0.158	0.0986	0.123	0.114	0.119	0.143	0.12	0.122	0.11	0.111	0.146	0.113	0.127	0.115	0.107	0.124
NCI-H1734	0.14	0.132	0.169	0.131	0.129	0.123	0.105	0.116	0.118	0.117	0.167	0.163	0.179	0.116	0.118	0.15	0.151	0.149	0.115	0.139
ABC-1	0.344	0.412	0.328	0.239	0.275	0.224	0.264	0.291	0.145	0.316	0.257	0.191	0.239	0.226	0.2	0.305	0.334	0.24	0.222	0.269
NCI-H520	0.119	0.139	0.121	0.114	0.151	0.194	0.21	0.199	0.21	0.235	0.153	0.192	0.158	0.169	0.242	0.176	0.186	0.18	0.16	0.208
EPLC-272H	0.117	0.138	0.155	0.056	0.0855	0.105	0.105	0.192	0.203	0.165	0.159	0.13	0.138	0.103	0.112	0.159	0.159	0.149	0.12	0.138
UMC-11	0.155	0.139	0.238	0.213	0.169	0.207	0.194	0.199	0.184	0.176	0.235	0.186	0.183	0.181	0.142	0.19	0.174	0.189	0.144	0.133
NCI-H1792	0.426	0.398	0.363	0.272	0.259	0.23	0.187	0.176	0.169	0.157	0.417	0.301	0.25	0.248	0.205	0.193	0.149	0.122	0.0959	0.0891
NCI-H1993	0.345	0.36	0.349	0.405	0.377	0.455	0.496	0.517	0.428	0.509	0.519	0.542	0.516	0.541	0.545	0.743	0.673	0.765	0.676	0.692
NCI-H1793	0.191	0.162	0.146	0.155	0.174	0.214	0.142	0.103	0.119	0.141	0.128	0.176	0.159	0.153	0.142	0.195	0.203	0.163	0.172	0.15
NCI-H1395	0.33	0.333	0.329	0.366	0.381	0.305	0.338	0.332	0.349	0.337	0.291	0.388	0.31	0.29	0.364	0.386	0.371	0.305	0.343	0.377
HCC-827	0.272	0.229	0.173	0.166	0.144	0.254	0.468	0.163	0.124	0.188	0.288	0.281	0.156	0.176	0.168	0.6	0.541	0.322	0.382	0.388
ChaGo-K-1	0.144	0.408	0.144	0.132	0.148	0.167	0.172	0.174	0.139	0.161	0.15	0.168	0.177	0.163	0.165	0.233	0.392	0.232	0.237	0.293
NCI-H2228	0.134	0.167	0.127	0.0641	0.315	0.168	0.119	0.129		0.158	0.116	0.152	0.207		0.0944	0.148	0.285	0.168	0.163	0.12

Cell Line	relative viability ([1]; first compound 0.05 µM)	relative viability ([1]; first compound 0.1581 µM)	relative viability ([1]; first compound 0.5 µM)	relative viability ([1]; first compound 1.581 µM)	relative viability ([1]; first compound 5 µM)	relative viability ([2]; first compound 0.05 µM)	relative viability ([2]; first compound 0.1581 µM)	relative viability ([2]; first compound 0.5 µM)	relative viability ([2]; first compound 1.581 µM)	relative viability ([2]; first compound 5 µM)	relative viability ([3]; first compound 0.05 µM)	relative viability ([3]; first compound 0.1581 µM)	relative viability ([3]; first compound 0.5 µM)	relative viability ([3]; first compound 1.581 µM)	relative viability ([3]; first compound 5 µM)	relative viability ([4]; first compound 0.05 µM)	relative viability ([4]; first compound 0.1581 µM)	relative viability ([4]; first compound 0.5 µM)	relative viability ([4]; first compound 1.581 µM)	relative viability ([4]; first compound 5 µM)
NCI-H2170	0.37	0.378	0.17	0.131	0.121	0.689	0.25	0.136	0.18	0.151	0.34	0.294	0.237	0.217	0.158	0.158	0.188	0.178	0.192	0.167
EMC-BAC-2	0.274	0.324	0.261	0.223	0.253	0.217	0.225	0.177	0.19	0.232	0.199	0.22	0.233	0.189	0.209	0.0912	0.166	0.173	0.193	0.19
NCI-H23	0.143	0.174	0.168	0.133	0.164	0.151	0.149	0.204	0.206	0.204	0.136	0.127	0.154	0.137	0.143	0.132	0.16	0.159	0.132	0.117
RERF-LC-KJ	0.211	0.19	0.194	0.198	0.212	0.343	0.306	0.272	0.265	0.294	0.266	0.258	0.251	0.221	0.243	0.19	0.17	0.173	0.18	0.191
NCI-H358	0.0943	0.103	0.106	0.07	0.0834	0.0782	0.118	0.144	0.108	0.0871	0.0802	0.0946	0.0796	0.0601	0.0821	0.178	0.214	0.19	0.142	0.163
LC-2-ad	0.224	0.196	0.192	0.172	0.202	0.269	0.273	0.252	0.219	0.247	0.282	0.295	0.277	0.179	0.227	0.141	0.106	0.103	0.103	0.117
HCC-15	0.184	0.268	0.114	0.0996	0.091	0.128	0.0546	0.119	0.0758	0.072	0.079	0.0907	0.0888	0.0899	0.0898	0.0704	0.087	0.104	0.0822	0.0856
NCI-H2405	0.217	0.25	0.26	0.214	0.21	0.218	0.245	0.287	0.242	0.283	0.26	0.238	0.229	0.226	0.24	0.185	0.206	0.232	0.209	0.275
LXF-289	0.252	0.6	0.189	0.143	0.13	0.169	0.132	0.177	0.153	0.126	0.2	0.223	0.222	0.146	0.0943	0.192	0.151	0.16	0.103	0.123
CAL-12T	0.0958	0.145	0.131	0.109	0.122	0.138	0.147	0.0989	0.105	0.112	0.133	0.126	0.145	0.105	0.147	0.168	0.198	0.138	0.167	0.178
COR-L23	0.0993	0.12	0.0934	0.0924	0.0839	0.102	0.0984	0.0928	0.0829	0.0974	0.116	0.111	0.108	0.0709	0.0853	0.134	0.0963	0.103	0.0639	0.0663
NCI-H1755	0.407	0.452	0.33	0.294	0.303	0.191	0.184	0.198	0.243	0.275	0.292	0.288	0.287	0.273	0.228	0.171	0.168	0.162	0.157	0.136
NCI-H1437	0.183	0.175	0.163	0.129	0.111	0.238	0.215	0.216	0.18	0.14	0.19	0.174	0.174	0.135	0.106	0.0885	0.101	0.0858	0.0683	0.0721
NCI-H2085	0.275	0.303	0.261	0.279	0.273	0.236	0.274	0.281	0.234	0.211	0.276	0.214	0.255	0.24	0.187	0.27	0.301	0.353	0.326	0.296
H3255	0.259	0.278	0.304	0.259	0.266	0.21	0.262	0.232	0.176	0.302	0.364	0.293	0.25	0.254	0.29	0.244	0.23	0.192	0.222	0.203
NCI-H650	0.143	0.197	0.146	0.144	0.128	0.177	0.2	0.198	0.173	0.2	0.162	0.228	0.194	0.211	0.198	0.234	0.235	0.25	0.201	0.202
